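96-well plates; 48 h exposure; 5 concentrations. Endpoints by linear interpolation between flanking doses. Not reached: highest tested concentration assigned. The concentration for 50% growth inhibition is given as GI50.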 Activity calls are given as the source filed them. Rule as the data show it: active = GI50 up to about 1.1 µM and inactive = higher.
Columns and labels:
Experiment in all cases: inhibition of tumour cell growth, NCI panel, 48 h
[1] = tested on: NCI-H522
[2] = tested on: BT-549
[3] = tested on: RXF 393
[4] = tested on: HCT-15
[5] = tested on: SNB-75
[6] = tested on: SR
[7] = tested on: T47D
[8] = tested on: SN12C
[9] = tested on: 786-0
[10] = tested on: SNB-19
[11] = tested on: Malme-3M
[12] = tested on: PC-3
[13] = tested on: DU-145
[14] = tested on: U-251
[15] = tested on: NCI/ADR-RES
[16] = tested on: SK-MEL-5
[17] = tested on: OVCAR-8
[18] = tested on: TK-10
[19] = tested on: MDA-MB-435
[20] = tested on: SF-539
[21] = tested on: HT-29
[22] = tested on: EKVX
[23] = tested on: OVCAR-3
[24] = tested on: SF-295
[25] = tested on: SK-MEL-2
[26] = tested on: NCI-H23
[27] = tested on: NCI-H460
[28] = tested on: OVCAR-4
[29] = tested on: UACC-257
[30] = tested on: IGROV-1
[31] = tested on: ACHN
[32] = tested on: MCF7
[33] = tested on: MDA-MB-231
[34] = tested on: Hs-578T
[35] = tested on: SW-620
[36] = tested on: SF-268
[37] = tested on: MOLT-4
[38] = tested on: OVCAR-5
[39] = tested on: HL-60
[40] = tested on: CCRF-CEM
[41] = tested on: UACC-62
[42] = tested on: HOP-92
[43] = tested on: K562
[44] = tested on: A549
[45] = tested on: SK-OV-3
[46] = tested on: UO-31
[47] = tested on: LOX IMVI
[48] = tested on: M14
[49] = tested on: KM12
[50] = tested on: MDA-N
[51] = tested on: HOP-62
[52] = tested on: A498
[53] = tested on: CAKI-1
[54] = tested on: HCT-116
[55] = tested on: SK-MEL-28
[56] = tested on: NCI-H226
[57] = tested on: RPMI-8226
[58] = tested on: COLO 205
[59] = tested on: HCC 2998

In the case of `CC#CCCCC1(C)CCCNC1=S` (centres undefined), the GI50 [1] is reported as > 10 µM (inactive), the GI50 [2] is reported as > 10 µM (inactive) and the GI50 [3] is reported as > 10 µM (inactive). The GI50 [4] was over 10 µM, the GI50 [5] was > 10 µM (inactive) and the GI50 [6] was > 10 µM (inactive). The GI50 [7] was > 10 µM (inactive), the GI50 [8] was > 10 µM (inactive) and the GI50 [9] was > 10 µM (inactive). The GI50 [10] was > 10 µM (inactive), the GI50 [11] was > 10 µM (inactive) and the GI50 [12] was > 10 µM (inactive). The GI50 [13] was > 10 µM (inactive), the GI50 [14] was > 10 µM (inactive) and the GI50 [15] was > 10 µM (inactive). The GI50 [16] was > 10 µM (inactive), the GI50 [17] was > 10 µM (inactive) and the GI50 [18] was > 10 µM (inactive). For the same molecule, the GI50 [19] was > 10 µM (inactive), the GI50 [20] was > 10 µM (inactive) and the GI50 [21] was > 10 µM (inactive). The GI50 [22] was > 10 µM (inactive), the GI50 [23] was > 10 µM (inactive) and the GI50 [24] was > 10 µM (inactive). For the same molecule, the GI50 [25] was > 10 µM (inactive), the GI50 [26] was > 10 µM (inactive) and the GI50 [27] was > 10 µM (inactive). For the same molecule, the GI50 [28] was > 10 µM (inactive), the GI50 [29] was > 10 µM (inactive) and the GI50 [30] was > 10 µM (inactive). The GI50 [31] was > 10 µM (inactive), the GI50 [32] was > 10 µM (inactive) and the GI50 [33] was > 10 µM (inactive). The GI50 [34] was > 10 µM (inactive), the GI50 [35] was > 10 µM (inactive) and the GI50 [36] was > 10 µM (inactive). The GI50 [37] was > 10 µM (inactive), the GI50 [38] was > 10 µM (inactive) and the GI50 [39] was > 10 µM (inactive). For the same molecule, the GI50 [40] was > 10 µM (inactive), the GI50 [41] was > 10 µM (inactive) and the GI50 [42] was > 10 µM (inactive). For the same molecule, the GI50 [43] was > 10 µM (inactive), the GI50 [44] was > 10 µM (inactive) and the GI50 [45] was > 10 µM (inactive). For the same molecule, the GI50 [46] was > 10 µM (inactive), the GI50 [47] was > 10 µM (inactive) and the GI50 [48] was > 10 µM (inactive). The GI50 [49] was > 10 µM (inactive).

With `CCCNC1=Nc2ccccc2NC(C)C1` (centres undefined) the GI50 [1] was > 100 µM (inactive), the GI50 [2] was > 100 µM (inactive) and the GI50 [3] was > 100 µM (inactive). For the same molecule, the GI50 [4] was over 100 µM, the GI50 [50] was > 100 µM (inactive) and the GI50 [5] was 22.6 µM (inactive). The GI50 [8] was > 100 µM (inactive), the GI50 [9] was > 100 µM (inactive) and the GI50 [10] was > 100 µM (inactive). The GI50 [51] was > 100 µM (inactive), the GI50 [11] was 79.6 µM (inactive) and the GI50 [12] was > 100 µM (inactive). For the same molecule, the GI50 [13] was > 100 µM (inactive), the GI50 [14] was > 100 µM (inactive) and the GI50 [15] was > 100 µM (inactive). For the same molecule, the GI50 [16] was > 100 µM (inactive), the GI50 [17] was > 100 µM (inactive) and the GI50 [18] was > 100 µM (inactive). For the same molecule, the GI50 [19] was > 100 µM (inactive), the GI50 [52] was > 100 µM (inactive) and the GI50 [53] was > 100 µM (inactive). The GI50 [21] was > 100 µM (inactive), the GI50 [22] was > 100 µM (inactive) and the GI50 [23] was > 100 µM (inactive). The GI50 [24] was > 100 µM (inactive), the GI50 [25] was > 100 µM (inactive) and the GI50 [26] was > 100 µM (inactive). The GI50 [27] was > 100 µM (inactive), the GI50 [28] was > 100 µM (inactive) and the GI50 [29] was > 100 µM (inactive). For the same molecule, the GI50 [54] was > 100 µM (inactive), the GI50 [30] was > 100 µM (inactive) and the GI50 [31] was > 100 µM (inactive). For the same molecule, the GI50 [33] was > 100 µM (inactive), the GI50 [34] was > 100 µM (inactive) and the GI50 [35] was > 100 µM (inactive). For the same molecule, the GI50 [36] was > 100 µM (inactive), the GI50 [37] was > 100 µM (inactive) and the GI50 [38] was > 100 µM (inactive). For the same molecule, the GI50 [39] was > 100 µM (inactive), the GI50 [40] was > 100 µM (inactive) and the GI50 [41] was > 100 µM (inactive). The GI50 [43] was > 100 µM (inactive), the GI50 [55] was > 100 µM (inactive) and the GI50 [56] was > 100 µM (inactive). The GI50 [44] was > 100 µM (inactive), the GI50 [45] was > 100 µM (inactive) and the GI50 [57] was > 100 µM (inactive). For the same molecule, the GI50 [46] was > 100 µM (inactive), the GI50 [48] was > 100 µM (inactive) and the GI50 [49] was > 100 µM (inactive). For the same molecule, the GI50 [58] was > 100 µM (inactive).

With `Cc1ccc(S(=O)(=O)n2cnc(CC(NC(=O)C3CCC(=O)N3C(=O)OCc3ccccc3)C(=O)N3CCCC3C(=O)NN)c2)cc1` (centres undefined) the GI50 [2] was > 100 µM (inactive), the GI50 [4] was over 100 µM and the GI50 [50] was > 100 µM (inactive). For the same molecule, the GI50 [5] was > 100 µM (inactive), the GI50 [6] was > 100 µM (inactive) and the GI50 [8] was > 100 µM (inactive). For the same molecule, the GI50 [9] was > 100 µM (inactive), the GI50 [10] was 48.8 µM (inactive) and the GI50 [51] was > 100 µM (inactive). For the same molecule, the GI50 [11] was > 100 µM (inactive), the GI50 [12] was > 100 µM (inactive) and the GI50 [14] was > 100 µM (inactive). For the same molecule, the GI50 [16] was > 100 µM (inactive), the GI50 [17] was > 100 µM (inactive) and the GI50 [18] was > 100 µM (inactive). The GI50 [52] was > 100 µM (inactive), the GI50 [21] was > 100 µM (inactive) and the GI50 [22] was > 100 µM (inactive). The GI50 [25] was > 100 µM (inactive), the GI50 [26] was > 100 µM (inactive) and the GI50 [27] was > 100 µM (inactive). For the same molecule, the GI50 [29] was > 100 µM (inactive), the GI50 [54] was > 100 µM (inactive) and the GI50 [30] was > 100 µM (inactive). For the same molecule, the GI50 [31] was > 100 µM (inactive), the GI50 [32] was > 100 µM (inactive) and the GI50 [33] was > 100 µM (inactive). For the same molecule, the GI50 [34] was > 100 µM (inactive), the GI50 [35] was > 100 µM (inactive) and the GI50 [37] was > 100 µM (inactive). For the same molecule, the GI50 [38] was > 100 µM (inactive), the GI50 [39] was > 100 µM (inactive) and the GI50 [42] was > 100 µM (inactive). For the same molecule, the GI50 [43] was > 100 µM (inactive), the GI50 [55] was > 100 µM (inactive) and the GI50 [56] was 24.8 µM (inactive). For the same molecule, the GI50 [44] was > 100 µM (inactive), the GI50 [57] was > 100 µM (inactive) and the GI50 [46] was 1.02 µM (active). The GI50 [48] was > 100 µM (inactive), the GI50 [59] was > 100 µM (inactive) and the GI50 [49] was > 100 µM (inactive). For the same molecule, the GI50 [58] was > 100 µM (inactive).
